Measured values from ChEMBL document CHEMBL4507300 (2021).

Experiments:
[1] = target: Serine/threonine-protein kinase 38-like (Homo sapiens) (UniProt Q9Y2H1); settings: Compound concentration 1000.0 nM
[2] = target: Death-associated protein kinase 3 (Homo sapiens) (UniProt O43293); settings: Compound concentration 1000.0 nM
[3] = system: Epidermal growth factor receptor (Homo sapiens), P00533 [G719C]; settings: Compound concentration 1000.0 nM
[4] = target: Vascular endothelial growth factor receptor 1 (Homo sapiens) (UniProt P17948); settings: Compound concentration 1000.0 nM
[5] = target: Tyrosine-protein kinase receptor TYRO3 (Homo sapiens) (UniProt Q06418); settings: Compound concentration 1000.0 nM
[6] = target: Ribosomal protein S6 kinase alpha-1 (Homo sapiens) (UniProt Q15418); settings: Compound concentration 1000.0 nM
[7] = system: Mast/stem cell growth factor receptor Kit (Homo sapiens), P10721 [D816H]; settings: Compound concentration 1000.0 nM
[8] = target: Serine/threonine-protein kinase STK11 (Homo sapiens) (UniProt Q15831); settings: Compound concentration 1000.0 nM
Rattus norvegicus = species on record: Rattus norvegicus; settings: Compound concentration 10.0 uM
[9] = system: Receptor-type tyrosine-protein kinase FLT3 (Homo sapiens), P36888 [K663Q]; settings: Compound concentration 1000.0 nM
[10] = target: Cyclin-dependent kinase-like 5 (Homo sapiens) (UniProt O76039); settings: Compound concentration 1000.0 nM
[11] = target: MAP/microtubule affinity-regulating kinase 3 (Homo sapiens) (UniProt P27448); settings: Compound concentration 1000.0 nM
[12] = target: Proto-oncogene tyrosine-protein kinase ROS (Homo sapiens) (UniProt P08922); settings: Compound concentration 1000.0 nM
[13] = target: Mitogen-activated protein kinase kinase kinase 4 (Homo sapiens) (UniProt Q9Y6R4); settings: Compound concentration 1000.0 nM
[14] = target: Mitogen-activated protein kinase kinase kinase 13 (Homo sapiens) (UniProt O43283); settings: Compound concentration 1000.0 nM
[15] = target: Rhodopsin kinase GRK1 (Homo sapiens) (UniProt Q15835); settings: Compound concentration 1000.0 nM
[16] = target: Mitogen-activated protein kinase kinase kinase 19 (Homo sapiens) (UniProt Q56UN5); settings: Compound concentration 1000.0 nM
[17] = target: Serine/threonine-protein kinase PLK1 (Homo sapiens) (UniProt P53350); settings: Compound concentration 1000.0 nM
[18] = system: Mast/stem cell growth factor receptor Kit (Homo sapiens), P10721 [A829P]; settings: Compound concentration 1000.0 nM
[19] = target: Interleukin-1 receptor-associated kinase 4 (Homo sapiens) (UniProt Q9NWZ3); settings: Compound concentration 1000.0 nM
[20] = target: Mitogen-activated protein kinase kinase kinase 3 (Homo sapiens) (UniProt Q99759); settings: Compound concentration 1000.0 nM
[21] = system: Epidermal growth factor receptor (Homo sapiens), P00533 [UNDEFINED MUTATION]; settings: Compound concentration 1000.0 nM
[22] = target: Serine/threonine-protein kinase MRCK gamma (Homo sapiens) (UniProt Q6DT37); settings: Compound concentration 1000.0 nM
[23] = target: Dual specificity tyrosine-phosphorylation-regulated kinase 2 (Homo sapiens) (UniProt Q92630); settings: Compound concentration 1000.0 nM
[24] = target: Tyrosine-protein kinase FRK (Homo sapiens) (UniProt P42685); settings: Compound concentration 1000.0 nM
[25] = target: Dual specificity protein kinase CLK4 (Homo sapiens) (UniProt Q9HAZ1); settings: Compound concentration 1000.0 nM
[26] = target: Homeodomain-interacting protein kinase 3 (Homo sapiens) (UniProt Q9H422); settings: Compound concentration 1000.0 nM
[27] = target: Mitogen-activated protein kinase kinase kinase 6 (Homo sapiens) (UniProt O95382); settings: Compound concentration 1000.0 nM
[28] = target: Proto-oncogene tyrosine-protein kinase Src (Homo sapiens) (UniProt P12931); settings: Compound concentration 1000.0 nM
[29] = target: Hormonally up-regulated neu tumor-associated kinase (Homo sapiens) (UniProt P57058); settings: Compound concentration 1000.0 nM
[30] = target: Serine/threonine-protein kinase BRSK2 (Homo sapiens) (UniProt Q8IWQ3); settings: Compound concentration 1000.0 nM
[31] = target: Tyrosine-protein kinase receptor UFO (Homo sapiens) (UniProt P30530); settings: Compound concentration 1000.0 nM
[32] = system: Phosphatidylinositol 4,5-bisphosphate 3-kinase catalytic subunit alpha isoform (Homo sapiens), P42336 [E545A]; settings: Compound concentration 1000.0 nM
[33] = target: Serine/threonine-protein kinase OSR1 (Homo sapiens) (UniProt O95747); settings: Compound concentration 1000.0 nM
[34] = target: Mitogen-activated protein kinase kinase kinase 15 (Homo sapiens) (UniProt Q6ZN16); settings: Compound concentration 1000.0 nM
[35] = target: Serine/threonine-protein kinase TNNI3K (Homo sapiens) (UniProt Q59H18); settings: Compound concentration 1000.0 nM
[36] = target: Serine/threonine-protein kinase D1 (Homo sapiens) (UniProt Q15139); settings: Compound concentration 1000.0 nM
[37] = target: Cyclin-dependent kinase 18 (Homo sapiens) (UniProt Q07002); settings: Compound concentration 1000.0 nM
[38] = target: Mitogen-activated protein kinase kinase kinase kinase 4 (Homo sapiens) (UniProt O95819); settings: Compound concentration 1000.0 nM
[39] = target: Mitogen-activated protein kinase 1 (Homo sapiens) (UniProt P28482); settings: Compound concentration 1000.0 nM
[40] = target: 5'-AMP-activated protein kinase catalytic subunit alpha-1 (Homo sapiens) (UniProt Q13131); settings: Compound concentration 1000.0 nM
[41] = target: Interleukin-1 receptor-associated kinase 1 (Homo sapiens) (UniProt P51617); settings: Compound concentration 1000.0 nM
[42] = target: GABA-A receptor; anion channel (Rattus norvegicus) (UniProt O09028+P15431+P18506+P18508+P19969+P20236+P23574+P23576+P28471+P28473+P30191+P62813+P63079+P63138+Q91ZM7+Q9ES14); settings: Compound concentration 10.0 uM
[43] = target: Aurora kinase C (Homo sapiens) (UniProt Q9UQB9); settings: Compound concentration 1000.0 nM

Sequence of Mitogen-activated protein kinase kinase kinase 15 (Homo sapiens) (Q6ZN16 whole entry): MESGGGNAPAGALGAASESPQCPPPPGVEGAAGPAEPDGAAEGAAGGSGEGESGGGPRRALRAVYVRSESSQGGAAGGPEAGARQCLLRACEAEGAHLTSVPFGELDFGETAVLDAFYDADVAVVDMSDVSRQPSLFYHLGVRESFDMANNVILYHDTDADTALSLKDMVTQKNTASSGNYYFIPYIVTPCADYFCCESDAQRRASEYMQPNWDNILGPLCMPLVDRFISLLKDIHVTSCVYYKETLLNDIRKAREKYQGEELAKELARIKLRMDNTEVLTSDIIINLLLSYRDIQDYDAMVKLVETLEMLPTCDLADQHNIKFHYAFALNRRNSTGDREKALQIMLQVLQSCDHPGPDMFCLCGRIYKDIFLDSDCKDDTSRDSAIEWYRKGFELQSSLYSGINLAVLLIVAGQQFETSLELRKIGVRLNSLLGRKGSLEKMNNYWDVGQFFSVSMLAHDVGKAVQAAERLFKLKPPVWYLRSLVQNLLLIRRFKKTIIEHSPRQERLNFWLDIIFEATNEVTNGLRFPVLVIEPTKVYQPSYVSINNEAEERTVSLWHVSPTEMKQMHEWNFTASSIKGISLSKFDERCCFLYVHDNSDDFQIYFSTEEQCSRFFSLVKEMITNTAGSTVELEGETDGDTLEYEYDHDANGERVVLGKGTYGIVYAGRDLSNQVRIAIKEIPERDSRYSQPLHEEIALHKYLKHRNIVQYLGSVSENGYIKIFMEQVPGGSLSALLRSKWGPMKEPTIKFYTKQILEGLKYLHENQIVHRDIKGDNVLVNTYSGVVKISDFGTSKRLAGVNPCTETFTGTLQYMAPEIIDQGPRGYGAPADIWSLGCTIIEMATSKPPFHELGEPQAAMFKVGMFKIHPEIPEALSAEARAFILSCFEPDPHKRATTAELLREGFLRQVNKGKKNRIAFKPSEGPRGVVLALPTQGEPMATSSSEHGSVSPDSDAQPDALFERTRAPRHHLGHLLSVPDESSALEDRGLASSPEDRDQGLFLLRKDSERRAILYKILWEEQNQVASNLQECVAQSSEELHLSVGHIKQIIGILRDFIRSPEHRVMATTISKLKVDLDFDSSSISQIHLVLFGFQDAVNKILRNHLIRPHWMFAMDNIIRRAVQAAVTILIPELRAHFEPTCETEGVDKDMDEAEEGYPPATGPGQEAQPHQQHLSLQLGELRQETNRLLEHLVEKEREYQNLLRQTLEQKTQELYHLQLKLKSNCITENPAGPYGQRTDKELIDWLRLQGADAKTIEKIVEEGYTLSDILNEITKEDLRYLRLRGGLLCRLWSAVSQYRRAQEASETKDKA
Sequence of Ribosomal protein S6 kinase alpha-1 (Homo sapiens) (Q15418 whole entry): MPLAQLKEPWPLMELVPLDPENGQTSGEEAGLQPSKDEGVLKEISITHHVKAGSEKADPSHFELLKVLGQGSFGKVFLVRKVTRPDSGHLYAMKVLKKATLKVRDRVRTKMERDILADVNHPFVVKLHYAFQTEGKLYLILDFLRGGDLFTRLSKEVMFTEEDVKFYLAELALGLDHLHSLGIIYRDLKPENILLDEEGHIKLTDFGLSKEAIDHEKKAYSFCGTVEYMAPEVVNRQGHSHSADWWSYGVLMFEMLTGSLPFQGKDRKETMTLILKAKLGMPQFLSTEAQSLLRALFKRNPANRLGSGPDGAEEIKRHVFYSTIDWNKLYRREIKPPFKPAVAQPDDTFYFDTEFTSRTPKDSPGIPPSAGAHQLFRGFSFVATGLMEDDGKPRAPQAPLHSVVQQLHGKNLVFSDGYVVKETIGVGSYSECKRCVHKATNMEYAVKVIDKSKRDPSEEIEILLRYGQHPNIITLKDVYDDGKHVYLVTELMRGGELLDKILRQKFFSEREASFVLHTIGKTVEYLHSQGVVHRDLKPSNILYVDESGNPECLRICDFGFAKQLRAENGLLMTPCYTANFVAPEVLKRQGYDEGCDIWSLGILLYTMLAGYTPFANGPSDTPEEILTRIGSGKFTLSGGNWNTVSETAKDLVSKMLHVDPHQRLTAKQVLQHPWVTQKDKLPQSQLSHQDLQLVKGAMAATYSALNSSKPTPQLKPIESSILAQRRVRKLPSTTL
Sequence of Phosphatidylinositol 4,5-bisphosphate 3-kinase catalytic subunit alpha isoform (Homo sapiens), P42336 [E545A] (P42336 whole entry E545A, canonical isoform): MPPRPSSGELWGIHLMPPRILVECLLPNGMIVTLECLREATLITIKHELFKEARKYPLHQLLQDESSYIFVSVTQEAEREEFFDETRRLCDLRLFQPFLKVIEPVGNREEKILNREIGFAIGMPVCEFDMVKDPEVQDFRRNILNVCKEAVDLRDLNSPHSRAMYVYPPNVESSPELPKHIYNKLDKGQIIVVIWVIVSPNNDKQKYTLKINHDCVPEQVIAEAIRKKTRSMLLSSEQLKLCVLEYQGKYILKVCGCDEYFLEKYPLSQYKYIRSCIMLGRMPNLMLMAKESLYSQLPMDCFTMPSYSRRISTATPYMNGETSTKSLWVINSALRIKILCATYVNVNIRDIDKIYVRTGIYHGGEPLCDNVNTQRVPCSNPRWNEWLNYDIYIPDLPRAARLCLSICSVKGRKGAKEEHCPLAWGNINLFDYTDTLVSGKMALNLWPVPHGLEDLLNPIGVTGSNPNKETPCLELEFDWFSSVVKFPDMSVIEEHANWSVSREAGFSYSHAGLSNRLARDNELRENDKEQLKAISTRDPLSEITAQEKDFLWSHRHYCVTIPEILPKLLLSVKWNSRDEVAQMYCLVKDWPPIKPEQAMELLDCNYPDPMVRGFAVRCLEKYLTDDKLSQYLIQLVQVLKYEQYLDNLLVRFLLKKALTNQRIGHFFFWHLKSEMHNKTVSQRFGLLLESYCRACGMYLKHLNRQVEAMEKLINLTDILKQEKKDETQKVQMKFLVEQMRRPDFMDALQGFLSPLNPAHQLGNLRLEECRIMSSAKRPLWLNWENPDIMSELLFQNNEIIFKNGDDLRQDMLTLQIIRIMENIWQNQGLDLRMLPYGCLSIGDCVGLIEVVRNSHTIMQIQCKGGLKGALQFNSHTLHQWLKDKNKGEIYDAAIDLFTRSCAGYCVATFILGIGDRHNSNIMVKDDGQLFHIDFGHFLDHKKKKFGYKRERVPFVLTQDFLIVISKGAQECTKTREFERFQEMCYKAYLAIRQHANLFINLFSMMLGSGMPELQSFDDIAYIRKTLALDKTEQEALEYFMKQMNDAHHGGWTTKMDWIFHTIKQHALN
Sequence of Tyrosine-protein kinase receptor UFO (Homo sapiens) (P30530 whole entry, canonical isoform): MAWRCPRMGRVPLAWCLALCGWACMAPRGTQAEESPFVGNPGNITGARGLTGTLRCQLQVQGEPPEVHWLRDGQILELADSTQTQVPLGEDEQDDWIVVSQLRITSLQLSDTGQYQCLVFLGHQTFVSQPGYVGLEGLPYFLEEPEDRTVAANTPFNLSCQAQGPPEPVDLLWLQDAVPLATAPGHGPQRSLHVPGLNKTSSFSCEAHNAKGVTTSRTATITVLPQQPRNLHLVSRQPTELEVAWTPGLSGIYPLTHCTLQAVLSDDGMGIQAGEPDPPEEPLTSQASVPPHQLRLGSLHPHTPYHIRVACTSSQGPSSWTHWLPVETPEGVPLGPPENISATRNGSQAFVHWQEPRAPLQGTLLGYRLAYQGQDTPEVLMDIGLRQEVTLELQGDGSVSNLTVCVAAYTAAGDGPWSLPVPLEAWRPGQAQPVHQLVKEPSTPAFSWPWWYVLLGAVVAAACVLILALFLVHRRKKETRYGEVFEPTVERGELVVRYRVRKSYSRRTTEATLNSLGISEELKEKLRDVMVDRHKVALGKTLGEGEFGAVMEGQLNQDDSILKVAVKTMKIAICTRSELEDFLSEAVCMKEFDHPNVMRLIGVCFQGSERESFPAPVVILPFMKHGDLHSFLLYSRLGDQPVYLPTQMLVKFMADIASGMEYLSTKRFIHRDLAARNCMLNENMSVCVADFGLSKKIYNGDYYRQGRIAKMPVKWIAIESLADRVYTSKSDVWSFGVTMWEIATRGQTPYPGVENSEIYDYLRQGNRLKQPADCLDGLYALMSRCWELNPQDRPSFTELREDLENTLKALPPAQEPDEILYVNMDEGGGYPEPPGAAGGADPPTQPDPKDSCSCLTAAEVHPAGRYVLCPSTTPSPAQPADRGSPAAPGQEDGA
Sequence of 5'-AMP-activated protein kinase catalytic subunit alpha-1 (Homo sapiens) (Q13131 whole entry, looked up): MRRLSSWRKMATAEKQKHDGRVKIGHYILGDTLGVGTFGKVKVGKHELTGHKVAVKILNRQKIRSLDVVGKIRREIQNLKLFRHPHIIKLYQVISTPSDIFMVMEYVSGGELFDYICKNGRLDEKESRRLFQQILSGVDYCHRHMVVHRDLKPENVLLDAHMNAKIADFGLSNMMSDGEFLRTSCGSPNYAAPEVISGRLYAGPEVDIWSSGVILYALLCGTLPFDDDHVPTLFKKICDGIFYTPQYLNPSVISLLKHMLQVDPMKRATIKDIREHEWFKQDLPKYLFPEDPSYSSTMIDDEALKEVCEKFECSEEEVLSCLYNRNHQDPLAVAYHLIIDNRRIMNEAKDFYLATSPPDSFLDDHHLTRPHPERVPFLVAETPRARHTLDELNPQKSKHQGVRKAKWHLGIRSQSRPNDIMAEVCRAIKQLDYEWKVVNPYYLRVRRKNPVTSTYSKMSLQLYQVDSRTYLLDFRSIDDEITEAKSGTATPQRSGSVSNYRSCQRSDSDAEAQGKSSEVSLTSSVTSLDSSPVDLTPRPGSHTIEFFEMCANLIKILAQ
Sequence of Serine/threonine-protein kinase OSR1 (Homo sapiens) (O95747 2-527 limits assumed): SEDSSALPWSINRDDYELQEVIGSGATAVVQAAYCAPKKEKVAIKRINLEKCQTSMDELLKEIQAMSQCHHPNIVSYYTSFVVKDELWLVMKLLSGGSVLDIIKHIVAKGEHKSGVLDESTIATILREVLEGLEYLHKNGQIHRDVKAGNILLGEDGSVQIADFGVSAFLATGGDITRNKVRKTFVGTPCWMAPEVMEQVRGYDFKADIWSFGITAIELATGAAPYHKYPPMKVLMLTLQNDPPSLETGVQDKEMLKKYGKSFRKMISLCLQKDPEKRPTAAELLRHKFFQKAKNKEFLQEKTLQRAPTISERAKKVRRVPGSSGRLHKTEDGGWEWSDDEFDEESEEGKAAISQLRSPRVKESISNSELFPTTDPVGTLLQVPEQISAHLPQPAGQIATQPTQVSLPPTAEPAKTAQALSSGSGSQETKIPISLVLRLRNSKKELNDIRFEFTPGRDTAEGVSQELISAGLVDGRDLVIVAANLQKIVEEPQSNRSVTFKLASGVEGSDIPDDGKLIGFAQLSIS

COc1cccc(CNC(=O)c2nc3scc(COCc4ccc(C(=O)O)cc4)c3c(=O)[nH]2)c1 [T-26c]
inactive: residual activity [1] 87.7% | residual activity [2] 92.2% | residual activity [3] 91.4% | residual activity [4] 93.9% | residual activity [5] 100% | residual activity [6] 100% | residual activity [7] 59% | residual activity [8] 97.2% | inhibition (Rattus norvegicus) 3.29% | residual activity [9] 93% | residual activity [10] 89.5% | residual activity [11] 100% | residual activity [12] 100% | residual activity [13] 86.6% | residual activity [14] 61.5% | residual activity [15] 57.5% | residual activity [16] 79.2% | residual activity [17] 54.1% | residual activity [18] 69.2% | residual activity [19] 85% | residual activity [20] 78.9% | residual activity [21] 74% | residual activity [22] 99.4% | residual activity [23] 100% | residual activity [24] 83.7% | residual activity [25] 94.4% | residual activity [26] 73.7% | residual activity [27] 74.5% | residual activity [28] 100% | residual activity [29] 100% | residual activity [30] 77.3% | residual activity [31] 84.2% | residual activity [32] 89.2% | residual activity [33] 71.9% | residual activity [34] 100% | residual activity [35] 95.5% | residual activity [36] 100% | residual activity [37] 100% | residual activity [38] 92.3% | residual activity [39] 100% | residual activity [40] 70.3% | residual activity [41] 75.6% | inhibition [42] 19% | residual activity [43] 67.3%
